Measurements taken from PubChem BioAssay (NCI).
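Five concentrations, 48 hours, 96-well plates. TGI: concentration producing complete growth inhibition.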

Assays:
Test in all cases: NCI anticancer screen, dose series, 48 h
[1] = test system: NCI-H226 lung
[2] = test system: HCC-2998 colon
[3] = test system: DU-145 prostate
[4] = test system: UACC-62 melanoma
[5] = test system: NCI-H23 lung
[6] = test system: SF-539 CNS
[7] = test system: SK-MEL-2 melanoma
[8] = test system: K-562 leukemia
[9] = test system: T-47D breast
[10] = test system: HS 578T breast
[11] = test system: SNB-19 CNS
[12] = test system: CAKI-1 renal
[13] = test system: MDA-MB-231 breast
[14] = test system: NCI/ADR-RES ovarian
[15] = test system: RPMI-8226 leukemia
[16] = test system: KM12 colon
[17] = test system: XF 498 CNS
[18] = test system: DMS 273 small cell lung
[19] = test system: DMS 114 small cell lung
[20] = test system: HOP-92 NSCLC

SMILES | TGI [1] [µM] | TGI [2] [µM] | TGI [3] [µM] | TGI [4] [µM] | TGI [5] [µM] | TGI [6] [µM] | TGI [7] [µM] | TGI [8] [µM] | TGI [9] [µM] | TGI [10] [µM] | TGI [11] [µM] | TGI [12] [µM] | TGI [13] [µM] | TGI [14] [µM] | TGI [15] [µM] | TGI [16] [µM] | TGI [17] [µM] | TGI [18] [µM] | TGI [19] [µM] | TGI [20] [µM]
OCC1COc2cc(Cl)c(Cl)cc2O1 (centres undefined) | > 10 | > 10 | > 10 | > 10 | > 10 | > 10 | > 10 | > 10 | > 10 | > 10 | > 10 | > 10 | > 10 | > 10 | > 10 | > 10 | – | – | – | –
COc1cc(C2c3cc4c(cc3[C@@H](Nc3cccc(CO)c3)C3COC(=O)[C@H]23)OCO4)cc(OC)c1O (some centres undefined) | 1.7 | 3.79 | – | 2.76 | 2.77 | 1.99 | 6.2 | 5.87 | – | – | 15.7 | 1.91 | – | 59.2 | 2.12 | 6.67 | 5.63 | 1.76 | 3.82 | 13.3
O=c1[nH]nc(NCc2ccccc2)c2nnn(Cc3ccccc3)c12 | – | > 100 | > 100 | – | > 100 | – | > 100 | > 100 | – | – | > 100 | > 100 | > 100 | > 100 | > 100 | > 100 | – | – | – | > 100
C=CCN1/C(=C(\C#N)c2nc3ccccc3[nH]2)Sc2c1nc[nH]c2=O | – | > 100 | – | > 100 | > 100 | > 100 | > 100 | > 100 | – | – | > 100 | > 100 | – | – | > 100 | > 100 | > 100 | > 100 | > 100 | > 100
COc1nc2cccc(C(O)c3ccccc3)c2nc1-c1ccccc1 (centres undefined) | 13.3 | – | 26.9 | 23.9 | 35.5 | 8.23 | 33.3 | 19.7 | 61.6 | 5.62 | 51.1 | 63.8 | 31.9 | 15.9 | 10.8 | > 100 | – | – | – | 31.8
